Measured values published in patent US4882313A, “Carboxamide derivatives of glycopeptides” (SmithKline Beckman Corporation, priority 1987, dated 1989).

Experiments:
[1] = pI (analytical data, Table 2); assay type: physicochemical
From the text: Using substantially the procedures of both Examples 1 and 2, the compounds of Examples 3-15 were obtained by using the appropriate glycopeptide and amine starting materials.

[2] = test system: Staphylococcus haemolyticus; assay: standard microtiter assay, minimum inhibitory concentration; assay type: cell-based; settings: Test Organism 7, Staphylococcus haemolyticus
From the text: (§1) Representative results of standard microtiter assays are reported in Table 1 which follows, as the minimum inhibitory concentration of antibiotic (mg/ml). In Table 1, test organisms 1-5 were different strains of Staphylococcus aureus; 6, 8, 11, 13 and 14 were different strains of Staphylococcus epidermidis; 7 was a Staphylococcus haemolyticus; 9 and 10 were different strains of Streptococcus faecalis; and 12 was a Staphylococcus saprophyticus.

Staphylococcus aureus = assay: as above; assay type: cell-based; settings: for minimum inhibitory concentration of antibiotic, Test Organism 1: Test Organism 1, strain of Staphylococcus aureus; for minimum inhibitory concentration of antibiotic, Test Organism 2: Test Organism 2, strain of Staphylococcus aureus; for minimum inhibitory concentration of antibiotic, Test Organism 3: Test Organism 3, strain of Staphylococcus aureus; for minimum inhibitory concentration of antibiotic, Test Organism 4: Test Organism 4, strain of Staphylococcus aureus; for minimum inhibitory concentration of antibiotic, Test Organism 5: Test Organism 5, strain of Staphylococcus aureus
From the text: as §1

[3] = test system: Staphylococcus saprophyticus; assay: as above; assay type: cell-based; settings: Test Organism 12, Staphylococcus saprophyticus
From the text: as §1

Streptococcus faecalis = assay: as above; assay type: cell-based; settings: for minimum inhibitory concentration of antibiotic, Test Organism 9: Test Organism 9, strain of Streptococcus faecalis; for minimum inhibitory concentration of antibiotic, Test Organism 10: Test Organism 10, strain of Streptococcus faecalis
From the text: as §1

[4] = test system: Staphylococcus epidermidis; assay: as above; assay type: cell-based; set-up: minimum inhibitory concentration of antibiotic, Test Organism 8: unit not given here; settings: for minimum inhibitory concentration of antibiotic, Test Organism 6: Test Organism 6, strain of Staphylococcus epidermidis; for minimum inhibitory concentration of antibiotic, Test Organism 8: Test Organism 8, strain of Staphylococcus epidermidis; for minimum inhibitory concentration of antibiotic, Test Organism 11: Test Organism 11, strain of Staphylococcus epidermidis; for minimum inhibitory concentration of antibiotic, Test Organism 13: Test Organism 13, strain of Staphylococcus epidermidis; for minimum inhibitory concentration of antibiotic, Test Organism 14: Test Organism 14, strain of Staphylococcus epidermidis
From the text: as §1

Compound	pI [1]	minimum inhibitory concentration of antibiotic, Test Organism 7 [2]	minimum inhibitory concentration of antibiotic, Test Organism 1 (Staphylococcus aureus)	minimum inhibitory concentration of antibiotic, Test Organism 2 (Staphylococcus aureus)	minimum inhibitory concentration of antibiotic, Test Organism 3 (Staphylococcus aureus)	minimum inhibitory concentration of antibiotic, Test Organism 4 (Staphylococcus aureus)	minimum inhibitory concentration of antibiotic, Test Organism 5 (Staphylococcus aureus)	minimum inhibitory concentration of antibiotic, Test Organism 12 [3]	minimum inhibitory concentration of antibiotic, Test Organism 9 (Streptococcus faecalis)	minimum inhibitory concentration of antibiotic, Test Organism 10 (Streptococcus faecalis)	minimum inhibitory concentration of antibiotic, Test Organism 6 [4]	minimum inhibitory concentration of antibiotic, Test Organism 8 [4]	minimum inhibitory concentration of antibiotic, Test Organism 11 [4]	minimum inhibitory concentration of antibiotic, Test Organism 13 [4]	minimum inhibitory concentration of antibiotic, Test Organism 14 [4]
CCCCCCCCCC(=O)NC1C(Oc2c3cc4cc2Oc2c(Cl)cc(cc2Cl)C(O)C2NC(=O)C(NC(=O)C4NC(=O)C4NC(=O)C(NC(=O)C(NC)c5ccc(O)c(c5)Oc5cc(O)c(Cl)c4c5)C(O)c4ccc(c(Cl)c4)O3)c3ccc(O)c(c3)-c3c(OC4OC(CO)C(O)C(O)C4O)cc(O)cc3C(C(=O)NN)NC2=O)OC(C(=O)NN)C(O)C1O (stereo not drawn) [Compound 2k, Ardacin A dihydrazide]	7.0	12500 mg/L	3100 mg/L	3100 mg/L	1600 mg/L	6300 mg/L	3100 mg/L	6300 mg/L	400 mg/L	100 mg/L	12500 mg/L	12.5	12500 mg/L	3100 mg/L	3100 mg/L
CNC1C(=O)NC2C(=O)NC(C(=O)NC3C(=O)NC4C(=O)NC(C(=O)NC(C(=O)NCCN)c5cc(O)cc(O)c5-c5cc4ccc5O)C(O)c4cc(Cl)c(c(Cl)c4)Oc4cc3cc(c4O)Oc3ccc(cc3Cl)C2O)c2cc(cc(O)c2Cl)Oc2cc1ccc2O (stereo not drawn) [Compound 2e, Ardacin aglycone-(2-aminoethyl amide)]		50 mg/L	50 mg/L	50 mg/L	50 mg/L	200 mg/L	50 mg/L	50 mg/L	50 mg/L	100 mg/L	100 mg/L	0.1	100 mg/L	50 mg/L	50 mg/L
CNC1C(=O)NC2C(=O)NC(C(=O)NC3C(=O)NC4C(=O)NC(C(=O)NC(C(=O)O)c5cc(O)cc(OC6OC(CO)C(O)C(O)C6O)c5-c5cc4ccc5O)C(O)c4cc(Cl)c(c(Cl)c4)Oc4cc3cc(c4O)Oc3ccc(cc3Cl)C2O)c2cc(cc(O)c2Cl)Oc2cc1ccc2O (stereo not drawn) [Compound 2b, Ardacin mannosylaglycone, reference compound]		25000 mg/L	1600 mg/L	1600 mg/L	800 mg/L	> 1600 mg/L	1600 mg/L	3100 mg/L	800 mg/L	800 mg/L	12500 mg/L	6.3	25000 mg/L	6300 mg/L	
CN[C@H](CC(C)C)C(=O)N[C@H]1C(=O)N[C@@H](CC(N)=O)C(=O)N[C@H]2C(=O)N[C@H]3C(=O)N[C@H](C(=O)N[C@H](C(=O)O)c4cc(O)cc(O)c4-c4cc3ccc4O)[C@H](O)c3ccc(c(Cl)c3)Oc3cc2cc(c3O[C@@H]2O[C@H](CO)[C@@H](O)[C@H](O)[C@H]2O[C@H]2C[C@](C)(N)[C@H](O)[C@H](C)O2)Oc2ccc(cc2Cl)[C@H]1O [Vancomycin, reference compound]		3100 mg/L	3100 mg/L	1600 mg/L	1600 mg/L	> 3100 mg/L	1600 mg/L	3100 mg/L	3100 mg/L	3100 mg/L	3100 mg/L		3100 mg/L	3100 mg/L	3100 mg/L
CNC1C(=O)NC2C(=O)NC(C(=O)NC3C(=O)NC4C(=O)NC(C(=O)NC(C(=O)O)c5cc(O)cc(O)c5-c5cc4ccc5O)C(O)c4cc(Cl)c(c(Cl)c4)Oc4cc3cc(c4O)Oc3ccc(cc3Cl)C2O)c2cc(cc(O)c2Cl)Oc2cc1ccc2O (stereo not drawn) [Compound 2a, Ardacin aglycone, reference compound]		6300 mg/L	800 mg/L	800 mg/L	400 mg/L	400 mg/L	800 mg/L	1600 mg/L	800 mg/L	800 mg/L	800 mg/L	3.1	1600 mg/L	1800 mg/L	800 mg/L
Ardacin A [Compound 2i, reference compound]		25000 mg/L	6300 mg/L	3100 mg/L	800 mg/L	> 6300 mg/L	3100 mg/L	12500 mg/L	800 mg/L	800 mg/L	50000 mg/L	25	25000 mg/L	6300 mg/L	5100 mg/L
AAJ-271 C2 [Compound 2r, reference compound]		12500 mg/L	800 mg/L	800 mg/L	200 mg/L	1600 mg/L	800 mg/L	1600 mg/L	200 mg/L	200 mg/L	25000 mg/L	12.5	25000 mg/L	6300 mg/L	3100 mg/L
CNC1C(=O)NC2C(=O)NC(C(=O)NC3C(=O)NC4C(=O)NC(C(=O)NC(C(=O)O)c5cc(O)cc(OC6OC(CO)C(O)C(O)C6O)c5-c5cc4ccc5O)C(O)c4ccc(c(Cl)c4)Oc4cc3cc(c4OC3OC(C(=O)O)C(O)C(O)C3NC(=O)CCCCCCCCC(C)C)Oc3ccc(cc3)C2O)c2cc(cc(O)c2Cl)Oc2cc1ccc2O (stereo not drawn) [Compound 2p, AAJ-271 C1, reference compound]		6300 mg/L	400 mg/L	400 mg/L	200 mg/L	800 mg/L	400 mg/L	1600 mg/L	6300 mg/L	6300 mg/L	6300 mg/L	25	25000 mg/L	6300 mg/L	6300 mg/L
